# Results published in patent US20230174584A1, “Antibiotic Compounds” (priority 2019, published 2023).
# “And” between values parts separate entries of the source, which are not always exact repeats. Equal entries are not always repeated.
# Key:
# S. aureus ATCC29213 = assay: UDP-MurNAc-pentapeptide accumulation assay; format: cell-based, Staphylococcus aureus; settings: S. aureus ATCC29213, 5 μM, 1 h
# Method: An overnight culture of bacterial suspension (S. aureus ATCC29213, E. faecium E155, E. faecium E7314 and E. faecium E980) was diluted 100-fold in TSB supplemented with 0.002% p80 and cultured at 37° C. until the optical density of the suspension reached a level equivalent to the 0.5 McFarland standard. Chloramphenicol was added at a final concentration of 130 μg/mL and the culture was incubated for an additional 15 min at 37° C. […] The cultures were incubated at 37° C. for 1 h, after which they were centrifuged to pellet the bacteria. The supernatant was removed and the pellets were resuspended in 1 mL MQ-H2O. The samples were boiled at 100° C. for 15 minutes and subsequently centrifuged at 12000 rpm for 30 minutes. The supernatant of the samples was lyophilized and redissolved in 250 μL buffer A (50 mM ammonium bicarbonate, 5 mM NEt3, pH 8.3). Samples were analyzed by analytical RP-HPLC using a 0-25% buffer B (MeOH) gradient over 25 minutes.
# An UDP-MurNAc-pentapeptide accumulation assay was performed to elucidate part of the mechanism of action of the compounds. UDP-MurNAc-pentapeptide is the last soluble precursor of peptidoglycan cell wall biosynthesis. In this assay, live cells accumulate this last soluble precursor when treated with compounds that interfere with the membrane bound stages of peptidoglycan biosynthesis (Sass, V. et al. Human beta-defensin 3 inhibits cell wall biosynthesis in Staphylococci. Infect. Immun. 78, 2793-2800 (2010)).
# [1] = system: HepG2 human hepatocellular carcinoma cells; assay: Cytotoxicity assay for HepG2 (MTT); format: cell-based; settings: MTT, HepG2, 24 h, 10% FBS
# Method: (§1) Mammalian cytotoxicity assays were performed by Cyprotex. Cytotoxicity was assessed using the MTT assay. Briefly, HepG2 human hepatocellular carcinoma cells (100 μL per well) were plated on black-walled clear-bottomed polystyrene 96-well tissue culture treated plates 24 h prior to dosing the cells. The cells were dosed with test compound (dissolved in 0.5% DMSO in growth media containing 10% FBS) at a range of concentrations (0.04 μM, 0.1 μM, 0.4 μM, 1 μM, 4 μM, 10 μM, 40 μM, 100 μM). After 23 h period the cells were loaded with the MTT dye (yellow; 3-(4,5-dimethyl-2-thiazolyl)-2,5-diphenyl-2H-tetrazolium bromide) followed by an additional 1 h incubation (resulting in a total incubation time with antibiotics of 24 h). Subsequently, the plates are dried and solubilized in DMSO followed by scanning at 570 nm using a microplate absorbance reader. Cell viability is determined by conversion of the soluble MTT to insoluble formazan (purple) by mitochondrial […] in live cells. Production of formazan indicates […]. Carbonyl cyanide 3-chlorophenylhydrazone is used as no response control and chlorpromazine is used as control known to be cytotoxic. Solvent control wells (0.5% DMSO in growth media containing 10% FBS) are then used to determine significance limits for wells that have a greater than expected fraction of low or high responders. The minimum effective concentration is determined from the lowest concentration whose mean value exceeds the significance level, provided either a clear dose-response relationship is observed, or at least two consecutive concentration points are above the significance level. AC50 values are also determined provided a clear dose-response relationship is observed. Experiment was performed in triplicates.
# [2] = system: MRSA USA300 strain NRS384; assay: Efficacy, neutropenic mouse thigh infection; format: in vivo, Staphylococcus aureus (in CD1 mice); settings: neutropenic mice, individual thighs, 23 h post treatment
# Method: Mouse studies were performed using pathogen-free CD1 mice (ICR), a well characterized outbred murine strain (supplied by Charles River, Margate UK). All mice were male and weighed 11-15 gram upon arrival. and were allowed to acclimatize for at least 7 days prior to study initiation. Mice were individually housed in sterilized ventilated cages supplied with HEPA filtered sterile air and aspen chip bedding (changed a minimum of once a week). Food and water was available ad libitum. The room temperature was 22° C. 1° C., with a 60% relative humidity and a maximum background noise of 56 dB. Mice were exposed to a 12 h light/dark cycle.
# Mice were made neutropenic by a subcutaneous injection of 150 mg kg^−1 and 100 mg kg^−1 cyclophosphamide 4 days and 1 day before infection respectively. Mice were infected in both thighs with MRSA USA300 strain NRS384 (1.47×10^6 CFU mL-1, 7.33×10^4 CFU per thigh) intramuscularly under temporary anesthesia. […] Pretreatment group was euthanized one hour after infection and the other treatment groups were euthanized […]. Weighted thighs were homogenized and cultured on MSA agar at 37° C. for 18-24 h followed by colony counting. Each group consisted of n=6 mice with both thighs infected (n=12 thighs per treatment group) and each thigh was treated as a separate sample. Data analysis was done with StatsDirect software v. 3.2.8 using non-parametric statistical models (Kruskal-Wallis using Conover-Inman to make all pairwise comparisons between groups).
# Colony forming units in neutropenic mice infected in each thigh with MRSA followed 1 h later by the first subcutaneous dose of antibiotic at concentrations indicated and subsequently the same dose at indicated intervals, with sacrifice and bacterial load determination in homogenized thighs at 23 h post treatment (24 h post infection). […] Data are mean±SEM (n=12, six mice per group, two thighs per mouse).
# MRSA USA 300 = assay: Resistance development serial passage assay; format: cell-based, Staphylococcus aureus; settings: MRSA serially passaged over 30 days in sub-lethal antibiotic concentrations
# Method: FIG. 3 illustrates the results obtained when selected compounds were assessed using a resistance development serial passage assay. A) Daily fold-increase of MIC compared to initial MIC against MRSA USA 300 grown in sub-lethal concentrations of daptomycin, compound 5 or compound 16 over 30 days. B). Daily fold-increase of MIC compared to initial MIC against VRE E155 grown in sub-lethal concentrations of daptomycin, compound 5 or compound 16 over 30 days.
# From glycerol stocks, bacterial strains were cultured on blood agar plates and incubated overnight at 37° C. A single colony was grown to exponential phase (OD600=0.5) in TSB+0.002% p80 and diluted 1:100 in fresh media. In polypropylene 96-well microtiter plates, antibiotics were added in biological triplicates and serial diluted 2-fold by transfer and mixing from one well to the next to achieve a final volume of 50 μL per well. An equal volume of bacterial suspension was added to the wells and plates were incubated overnight at 37° C. […] This procedure was repeated for 30 days and the MIC was recorded daily. Cultures containing daptomycin were supplemented with 50 mg L^−1 CaCl2 and 10 mg L^−1 MgSO4. The experiment was performed in biological replicates and for each replicate the MIC was determined from the median of a minimum of triplicates.
# [3] = Cytotoxicity assay for HepG2 (MTT); format: cell-based, human; settings: human; MTT, HepG2, 24 h, 10% FBS, n = 3; read-out: AC50
# Method: as §1
smiles,measurement,setting,value
CCCCCCCNC(N)=Nc1ccc(CN[C@@]2(C)C[C@H](O[C@H]3[C@H](Oc4c5cc6cc4Oc4ccc(cc4Cl)[C@@H](O)[C@@H](NC(=O)[C@@H](CC(C)C)NC)C(=O)N[C@@H](CC(N)=O)C(=O)N[C@H]6C(=O)N[C@H]4C(=O)N[C@H](C(=O)N[C@H](C(=O)O)c6cc(O)cc(O)c6-c6cc4ccc6O)[C@H](O)c4ccc(c(Cl)c4)O5)O[C@H](CO)[C@@H](O)[C@@H]3O)O[C@@H](C)[C@H]2O)cc1 [Compound 5],accumulation of UDP-MurNAc-pentapeptide,S. aureus ATCC29213,accumulation of UDP-MurNAc-pentapeptide
same,AC50,[1]; n = 3,> 100 µM
same,Thigh burden,[2]; 3 mg kg^−1 q6h subcutaneous,113 CFU g^−1 (2×) and 368 CFU g^−1 and 456 CFU g^−1 and 9139 CFU g^−1 and 666 CFU g^−1 and 350 CFU g^−1 and 587 CFU g^−1 and 75 CFU g^−1 and 42132 CFU g^−1 and 7735 CFU g^−1 and 3885 CFU g^−1
same,Thigh burden,[2]; 10 mg kg^−1 q6h subcutaneous,368 CFU g^−1 and 35 CFU g^−1 and 77 CFU g^−1 and 96 CFU g^−1 and 76 CFU g^−1 and 40 CFU g^−1 and BLD (2×) and 158 CFU g^−1 and 7984 CFU g^−1 and 81 CFU g^−1 and 34 CFU g^−1
same,"resistance induction, fold-increase of MIC compared to initial MIC",MRSA USA 300,did not induce resistance
CCCCCCCCNC(N)=Nc1ccc(CN[C@@]2(C)C[C@H](O[C@H]3[C@H](Oc4c5cc6cc4Oc4ccc(cc4Cl)[C@@H](O)[C@@H](NC(=O)[C@@H](CC(C)C)NC)C(=O)N[C@@H](CC(N)=O)C(=O)N[C@H]6C(=O)N[C@H]4C(=O)N[C@H](C(=O)N[C@H](C(=O)O)c6cc(O)cc(O)c6-c6cc4ccc6O)[C@H](O)c4ccc(c(Cl)c4)O5)O[C@H](CO)[C@@H](O)[C@@H]3O)O[C@@H](C)[C@H]2O)cc1 [Compound 6],accumulation of UDP-MurNAc-pentapeptide,S. aureus ATCC29213,accumulation of UDP-MurNAc-pentapeptide
CCCCCCCCCNC(N)=Nc1ccc(CN[C@@]2(C)C[C@H](O[C@H]3[C@H](Oc4c5cc6cc4Oc4ccc(cc4Cl)[C@@H](O)[C@@H](NC(=O)[C@@H](CC(C)C)NC)C(=O)N[C@@H](CC(N)=O)C(=O)N[C@H]6C(=O)N[C@H]4C(=O)N[C@H](C(=O)N[C@H](C(=O)O)c6cc(O)cc(O)c6-c6cc4ccc6O)[C@H](O)c4ccc(c(Cl)c4)O5)O[C@H](CO)[C@@H](O)[C@@H]3O)O[C@@H](C)[C@H]2O)cc1 [Compound 7],accumulation of UDP-MurNAc-pentapeptide,S. aureus ATCC29213,accumulation of UDP-MurNAc-pentapeptide
CCCCCCN(CCCCCC)C(N)=Nc1ccc(CN[C@@]2(C)C[C@H](O[C@H]3[C@H](Oc4c5cc6cc4Oc4ccc(cc4Cl)[C@@H](O)[C@@H](NC(=O)[C@@H](CC(C)C)NC)C(=O)N[C@@H](CC(N)=O)C(=O)N[C@H]6C(=O)N[C@H]4C(=O)N[C@H](C(=O)N[C@H](C(=O)O)c6cc(O)cc(O)c6-c6cc4ccc6O)[C@H](O)c4ccc(c(Cl)c4)O5)O[C@H](CO)[C@@H](O)[C@@H]3O)O[C@@H](C)[C@H]2O)cc1 [Compound 12],AC50,[1]; n = 3,> 100 µM
CN[C@H](CC(C)C)C(=O)N[C@H]1C(=O)N[C@@H](CC(N)=O)C(=O)N[C@H]2C(=O)N[C@H]3C(=O)N[C@H](C(=O)N[C@H](C(=O)O)c4cc(O)cc(O)c4-c4cc3ccc4O)[C@H](O)c3ccc(c(Cl)c3)Oc3cc2cc(c3O[C@@H]2O[C@H](CO)[C@@H](O)[C@H](O)[C@H]2O[C@H]2C[C@](C)(NCc3ccc(N=C(N)NC/C=C(\C)CCC=C(C)C)cc3)[C@H](O)[C@H](C)O2)Oc2ccc(cc2Cl)[C@H]1O [Compound 14],accumulation of UDP-MurNAc-pentapeptide,S. aureus ATCC29213,accumulation of UDP-MurNAc-pentapeptide
CN[C@H](CC(C)C)C(=O)N[C@H]1C(=O)N[C@@H](CC(N)=O)C(=O)N[C@H]2C(=O)N[C@H]3C(=O)N[C@H](C(=O)N[C@H](C(=O)O)c4cc(O)cc(O)c4-c4cc3ccc4O)[C@H](O[C@H]3C[C@](C)(N)[C@@H](O)[C@H](C)O3)c3ccc(c(Cl)c3)Oc3cc2cc(c3O[C@@H]2O[C@H](CO)[C@@H](O)[C@H](O)[C@H]2O[C@H]2C[C@](C)(NCc3ccc(-c4ccc(Cl)cc4)cc3)[C@@H](O)[C@H](C)O2)Oc2ccc(cc2Cl)[C@H]1O [Oritavancin],AC50 at 24 h,[3],> 100 µM
same,Direction of response (↑↓),[1],↓
same,MEC,[1]; n = 3,76.5 µM
"CCCCCCCCCCNCCN[C@@]1(C)C[C@H](O[C@H]2[C@H](Oc3c4cc5cc3Oc3ccc(cc3Cl)[C@@H](O)[C@@H](NC(=O)[C@@H](CC(C)C)NC)C(=O)N[C@@H](CC(N)=O)C(=O)N[C@H]5C(=O)N[C@H]3C(=O)N[C@H](C(=O)N[C@H](C(=O)O)c5cc(O)c(CNCP(=O)(O)O)c(O)c5-c5cc3ccc5O)[C@H](O)c3ccc(c(Cl)c3)O4)O[C@H](CO)[C@@H](O)[C@@H]2O)O[C@@H](C)[C@H]1O [Telavancin, reference compound]",AC50 at 24 h,[3],> 100 µM
"CN[C@H](CC(C)C)C(=O)N[C@H]1C(=O)N[C@@H](CC(N)=O)C(=O)N[C@H]2C(=O)N[C@H]3C(=O)N[C@H](C(=O)N[C@H](C(=O)O)c4cc(O)cc(O)c4-c4cc3ccc4O)[C@H](O)c3ccc(c(Cl)c3)Oc3cc2cc(c3O[C@@H]2O[C@H](CO)[C@@H](O)[C@H](O)[C@H]2O[C@H]2C[C@](C)(N)[C@H](O)[C@H](C)O2)Oc2ccc(cc2Cl)[C@H]1O [Vancomycin, reference compound]",AC50 at 24 h,[3],> 100 µM
same,Thigh burden,[2]; 25 mg kg^−1 q12h subcutaneous,2023 CFU g^−1 and 1148 CFU g^−1 and 142564 CFU g^−1 and 283390 CFU g^−1 and 1204 CFU g^−1 and 310 CFU g^−1 and BLD and 6736 CFU g^−1 and 106 CFU g^−1 and 825 CFU g^−1 and 1030 CFU g^−1
